Patent US8501752B2, “Methods for treating cancer and other pathological proliferating disorders by inhibiting mitosis using pyrrolo[2,3-d]pyrimidines” (Duquesne University of the Holy Ghost, priority 2005, dated 2013)

What was measured:
[1] = system: NCI 60 human tumor cell lines; test: NCI IVCLSP growth inhibition, whole panel (text summaries); type: cell-based; conditions: NCI 60 tumor panel
Description: (§1) FIG. 1 presents nine compounds that were tested using the National Cancer Institute (NCI) 60 human tumor cell lines. The cells lines, which represent leukemia, melanoma, and cancers of the lung, colon, brain, ovary, breast, prostate, and kidney, are listed in Table 1.
Compounds 1-9 were tested according to the NCI Developmental Therapeutics Program (DTP) In Vitro Cell Line Screening Project (IVCLSP). […] Methodology for testing under the IVCLSP is as follows: The human tumor cell lines of the cancer screening panel are grown in RPMI 1640 medium containing 5% fetal bovine serum and 2 mM L-glutamine. For a typical screening experiment, cells are inoculated into 96 well microtiter plates in 100 μL at plating densities ranging from 5,000 to 40,000 cells/well depending on the doubling time of individual cell lines. After cell inoculation, the microtiter plates are incubated at 37° C., 5% CO2, 95% air and 100% relative humidity for 24 h prior to addition of experimental drugs.
After 24 h, two plates of each cell line are fixed in situ with TCA, to represent a measurement of the cell population for each cell line at the time of drug addition (Tz). Experimental drugs are solubilized in dimethyl sulfoxide at 400-fold the desired final maximum test concentration and stored frozen prior to use. At the time of drug addition, an aliquot of frozen concentrate is thawed and diluted to twice the desired final maximum test concentration with complete medium containing 50 μg/ml gentamicin. Additional four, 10-fold or ½ log serial dilutions are made to provide a total of five drug concentrations plus control. Aliquots of 100 μl of these different drug dilutions are added to the appropriate microtiter wells already containing 100 μl of medium, resulting in the required final drug concentrations.
Following drug addition, the plates are incubated for an additional 48 h at 37° C., 5% CO2, 95% air, and 100% relative humidity. For adherent cells, the assay is terminated by the addition of cold TCA. Cells are fixed in situ by the gentle addition of 50 μl of cold 50% (w/v) TCA (final concentration, 10% TCA) and incubated for 60 minutes at 4° C. The supernatant is discarded, and the plates are washed five times with tap water and air dried. Sulforhodamine B (SRB) solution (100 μl) at 0.4% (w/v) in 1% acetic acid is added to each well, and plates are incubated for 10 minutes at room temperature. After staining, unbound dye is removed by washing five times with 1% acetic acid and the plates are air dried. Bound stain is subsequently solubilized with 10 mM trizma base, and the absorbance is read on an automated plate reader at a wavelength of 515 nm. For suspension cells, the methodology is the same except that the assay is terminated by fixing settled cells at the bottom of the wells by gently adding 50 μl of 80% TCA (final concentration, 16% TCA). Using the seven absorbance measurements [time zero, (Tz), control growth, (C), and test growth in the presence of drug at the five concentration levels (Ti)], the percentage growth is calculated at each of the drug concentrations levels. Percentage growth inhibition is calculated as: [(Ti−Tz)/(C−Tz)]×100 for concentrations for which Ti>/=Tz [(Ti−Tz)/Tz]×100 for concentrations for which Ti<Tz.
Three dose response parameters are calculated for each experimental agent. […] The drug concentration resulting in total growth inhibition (TGI) is calculated from Ti=Tz. […]

[2] = system: A498; test: NCI IVCLSP growth inhibition (SRB), A498; type: cell-based, human; conditions: renal cancer A498 cell
Description: as §1
Compounds 1-9 were tested according to the NCI Developmental Therapeutics Program (DTP) In Vitro Cell Line Screening Project (IVCLSP). […] Methodology for testing under the IVCLSP is as follows: The human tumor cell lines of the cancer screening panel are grown in RPMI 1640 medium containing 5% fetal bovine serum and 2 mM L-glutamine. […]
Following drug addition, the plates are incubated for an additional 48 h at 37° C., 5% CO2, 95% air, and 100% relative humidity. […] Bound stain is subsequently solubilized with 10 mM trizma base, and the absorbance is read on an automated plate reader at a wavelength of 515 nm. […] Using the seven absorbance measurements [time zero, (Tz), control growth, (C), and test growth in the presence of drug at the five concentration levels (Ti)], the percentage growth is calculated at each of the drug concentrations levels. Percentage growth inhibition is calculated as: [(Ti−Tz)/(C−Tz)]×100 for concentrations for which Ti>/=Tz [(Ti−Tz)/Tz]×100 for concentrations for which Ti<Tz.
Three dose response parameters are calculated for each experimental agent. […]

[3] = system: NCI/ADR cells; test: Cytotoxicity, NCI/ADR cells that overexpress P-glycoprotein
Source text: (§2) These cell lines are resistant to anticancer drugs due to overexpression of the transport proteins P-glycoprotein or MRP1.

[4] = system: MCF-7/VP cells; test: Cytotoxicity, MCF-7/VP cells that overexpress MRP1; conditions: read-out: Cytotoxicity IC50, MCF-7/VP; mean ± SEM for 3 experiments
Source text: as §2

[5] = molecular target: T1, P-glycoprotein (Homo sapiens, UniProt P08183); test: P-glycoprotein antagonism: sensitivity of NCI/ADR cells to vinblastine; type: cell-based; conditions: absence or presence of 50 nM vinblastine
T1 construct: NCI/ADR cells that overexpress P-glycoprotein; endogenous in cells; host or cells: NCI/ADR cells
Source text: To determine if this is due to inhibition of drug transport activity by these proteins, the effects of these compounds on P-glycoprotein were further characterized. The effects of the compounds on the sensitivity of NCI/ADR cells to vinblastine and of MCF-7/VP cells to vincristine were examined to evaluate antagonism of P-glycoprotein and MRP1, respectively. FIGS. 4a-b present graphs of antagonism score versus concentration for P-glycoprotein and MRP1, respectively.
The Pgp antagonism score is calculated as the percentage survival of cells in the absence of vinblastine/percentage survival in the presence of vinblastine. […] The MRP1 antagonism score is calculated as the percentage survival of cells in the absence of vincristine/percentage survival in the presence of vincristine. […] Concentrations of Compounds 1-5 above their IC50 toward MCF-7 cells are not indicated. Data for one of three similar experiments is shown.

[6] = system: T24 human bladder carcinoma cells; test: Cytotoxicity, T24 cells; type: cell-based; conditions: mean ± SEM for 3 experiments
[7] = system: MCF-7 cells; test: Cytotoxicity, drug-sensitive MCF-7 cells; conditions: read-out: Cytotoxicity IC50, MCF-7; mean ± SEM for 3 experiments
Source text: as §2

T1 sequence (P08183 whole entry): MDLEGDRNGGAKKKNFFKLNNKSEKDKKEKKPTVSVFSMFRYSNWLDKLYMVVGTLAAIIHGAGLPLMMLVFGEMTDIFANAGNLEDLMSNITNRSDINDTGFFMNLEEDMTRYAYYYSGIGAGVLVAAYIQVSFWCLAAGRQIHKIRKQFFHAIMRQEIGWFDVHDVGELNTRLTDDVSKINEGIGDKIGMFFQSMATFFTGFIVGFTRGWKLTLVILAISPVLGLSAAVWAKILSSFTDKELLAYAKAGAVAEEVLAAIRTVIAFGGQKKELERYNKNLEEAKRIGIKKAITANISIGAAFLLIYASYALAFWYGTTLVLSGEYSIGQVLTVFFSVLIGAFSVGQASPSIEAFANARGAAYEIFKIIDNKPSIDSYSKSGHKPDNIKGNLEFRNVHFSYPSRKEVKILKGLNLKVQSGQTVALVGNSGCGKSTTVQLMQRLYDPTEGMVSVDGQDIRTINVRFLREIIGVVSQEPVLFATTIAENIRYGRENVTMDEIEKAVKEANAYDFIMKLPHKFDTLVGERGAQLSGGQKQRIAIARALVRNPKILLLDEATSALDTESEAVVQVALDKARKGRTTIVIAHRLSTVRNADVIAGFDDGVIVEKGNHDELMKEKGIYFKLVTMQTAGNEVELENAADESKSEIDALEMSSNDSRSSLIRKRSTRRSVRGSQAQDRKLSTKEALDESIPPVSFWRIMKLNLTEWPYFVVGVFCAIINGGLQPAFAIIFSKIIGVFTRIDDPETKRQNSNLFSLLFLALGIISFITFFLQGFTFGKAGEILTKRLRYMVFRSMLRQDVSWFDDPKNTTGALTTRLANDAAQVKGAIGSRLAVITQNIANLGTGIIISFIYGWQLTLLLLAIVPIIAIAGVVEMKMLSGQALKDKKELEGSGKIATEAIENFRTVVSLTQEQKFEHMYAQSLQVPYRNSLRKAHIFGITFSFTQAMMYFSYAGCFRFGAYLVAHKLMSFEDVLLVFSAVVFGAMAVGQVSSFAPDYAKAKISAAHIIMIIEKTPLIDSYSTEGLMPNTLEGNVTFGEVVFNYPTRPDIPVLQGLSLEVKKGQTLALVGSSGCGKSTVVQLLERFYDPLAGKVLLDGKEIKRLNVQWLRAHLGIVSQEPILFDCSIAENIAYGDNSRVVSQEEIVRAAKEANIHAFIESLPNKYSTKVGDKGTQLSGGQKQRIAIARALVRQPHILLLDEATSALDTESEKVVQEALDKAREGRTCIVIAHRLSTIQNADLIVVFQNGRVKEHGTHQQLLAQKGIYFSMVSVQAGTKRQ

## COc1cccc(CCc2cn(Cc3ccccc3)c3nc(N)nc(C)c23)c1 [Compound 3]
[1]
  GI50 values, level across the tumor cell lines (in words): micromolar range for 8 of the 56 tumor cell lines
[2]
  GI50 level (in words): two digit nanomolar level
[3]; NCI/ADR, relative to unsubstituted Compound 5
  change of cytotoxic potency by substitution (in words): enhanced the potency
[3]; read-out: Cytotoxicity IC50, NCI/ADR, mean ± SEM for 3 experiments
  IC50: 5.7 ± 0.7 µM
[4]
  IC50: 22 ± 4.2 µM
[5]
  effect on P-glycoprotein-mediated resistance (in words): dose-dependent sensitization
[6]
  IC50: 25 ± 2.9 µM
[7]
  IC50: 8 ± 3.5 µM
